Experimental data from patent publication US20100081630A1, “Heparin Compositions and Selectin Inhibition” (University of California, priority 2005, published 2010).

Experiments:
[1] = Plasma anti-Xa levels after subcutaneous heparin dosing; assay type: in vivo; settings: mice
Protocol: Anti-Xa levels were measured in plasma from multiple mice, 30 min after each mouse received a single “1×” or “3×” subcutaneous dose of various heparins. Each open circle represents one mouse and horizontal bars represent mean values.
Titrating Heparin Dosage via Plasma Anti-Xa Levels: Mice were injected subcutaneously with 100 ul of UFH, TINZ, or FOND diluted in PBS, at various final concentrations. Thirty minutes later, blood was collected by cardiac puncture into 1 cc syringe containing 30 ul 10 mM EDTA. Samples were centrifuged twice at 2,000 rcf at 24° C. to collect the plasma, which was stored at −80° C. until analysis for anti-Xa activity. […] The resulting chromophore was measured at 405 nm. Plasma heparin levels were calculated in anti-Xa units/ml by comparing against a standard curve of heparin-spiked mouse plasma samples. Standards and samples were analyzed in triplicate. […]
Pharmacokinetic Studies in Mice to Normalize Heparin Dosing. […] Therapeutic levels for patients treated with heparin for venous thromboembolism are ˜1 anti-factor Xa unit/ml for LMWHs, typically measured at 3-4 hours after injection. […] Plasma anti-Xa levels were analyzed 30 minutes after subcutaneous delivery, which is when the tumor cells would be injected into the vasculature in the planned metastasis experiments. […] Single heparin doses were increased from “1×” to “3×” dosing, and analyzed the anti-Xa levels (FIG. 2B). […]

[2] = tested on: B16F1 cells; assay: Melanoma experimental metastasis assay; assay type: in vivo, mouse; settings: 1× dose s.c. 30 min before i.v. B16F1 cells; day 17
Protocol: FIG. 4 depicts heparins with selectin-inhibitory activity that inhibit metastasis of melanoma cells. Mice were injected subcutaneously with “1×” heparin (A) or “3×” heparin (B) (or PBS as a control), and 30 minutes later were injected intravenously with B16F1 cells. After 17 days, mice were euthanized, lungs perfused with formalin through the trachea and then allowed to fix in formalin for a minimum of 24 hours. Metastasis was quantified by measuring lung weight, which correlated well with the physical appearance of the lungs, documented by photography (representative pictures are shown below quantification). Open circles each represent one mouse and horizontal bars represent mean lung weights. P-values were determined by a Student's T-test, assuming two-tailed, unequal distribution.
Melanoma Experimental Metastasis Assay: Mice were injected with heparin and 500,000 B16F1 cells using the protocol described for the carcinoma metastasis assay. […] Lung weights were determined by removing the lungs from formalin, briefly setting them on filter paper to remove excess liquid, and then weighing them on a Sartorius analytical scale.
Heparin Inhibition of Melanoma Metastasis is Also Dependent on Selectin-Inhibitory Activity. […] Seventeen days following injection, the lungs were excised and evaluated for the presence of metastatic foci. […]

[3] = incorporated into liposomes; cited from earlier work
[4] = tested on: tumor cells; settings: cited from earlier work
[5] = hirudin 10 mg/kg, at the time of tumor cell injection; almost all above limits of detection; cited from earlier work

With `CO[C@H]1O[C@H](COS(=O)(=O)O)[C@@H](O[C@@H]2O[C@@H](C(=O)O)[C@@H](O[C@H]3O[C@H](COS(=O)(=O)O)[C@@H](O[C@@H]4O[C@H](C(=O)O)[C@@H](O[C@H]5O[C@H](COS(=O)(=O)O)[C@@H](O)[C@H](O)[C@H]5NS(=O)(=O)O)[C@H](O)[C@H]4O)[C@H](OS(=O)(=O)O)[C@H]3NS(=O)(=O)O)[C@H](O)[C@H]2OS(=O)(=O)O)[C@H](O)[C@H]1NS(=O)(=O)O` [FOND, Fondaparinux] the “mean plasma anti-Xa level” value ([1]; 30 min after single subcutaneous 1× dose, range meant: therapeutic ~1 anti-factor Xa unit/ml) was “within this range”, the “plasma anti-Xa level” value ([1]; 30 min after single subcutaneous 3× dose) was “at or above the accepted range for clinical anticoagulation” and the “metastasis (lung weight)” value [2] was “no effect”.

For `CCCCCCCCCCCCCCCC(=O)OCn1ccnc1` [PMI, 1-(palmitoyloxymethyl)imidazole], the “apparent pKa” value [3] is listed as 5.12.

In the case of hirudin, the “pulmonary arrest of tumor cells” value ([4]; hirudin 10 mg/kg twenty minutes prior to tumor cell injection) is given as “decreased pulmonary arrest of tumor cells”, the “formation of metastatic foci” value ([4]; hirudin 20 mg/kg before, 4 h after, then every other day for 10 days, i.v. tumor cells) is given as “significant decrease in formation of metastatic foci” and the “clotting time in activated partial thromboplastin time test” value [5] is given as > 300 s.
